The target of the test is Beta-1 adrenergic receptor (Canis familiaris). Put plainly: In vitro Beta-1 adrenergic receptor affinity in partially purified membrane fractions from canine cardiac tissue using […] (4.5 nM).

As usually defined, the IC50 is the concentration that gives 50% inhibition. Low readings indicate greater potency, high ones weaker potency.

Compound `Cc1nccn1-c1ccc(OCCNCC(O)COc2ccc(N(C)S(C)(=O)=O)cc2)cc1` (configuration not stated) gave an IC50 of 18 µM.
In turn, `CN(c1ccc(OCC(O)CNCCOc2ccc(-n3ccnc3)cc2)cc1)S(C)(=O)=O` (configuration not stated) came in with an IC50 of 21 µM.

The values are drawn from BindingDB's records for doi:10.1021/jm00166a002 (Berlex Laboratories, 1990).
